Several values for one entry are separate records, joined by “and”; a condition that tells them apart may be missing. Identical values can stand only once. Each block holds one molecule with its values, some of them ahead of it.
Legend:
[1] = UV/vis absorption and emission; format: physicochemical; settings: for Extinction Coefficient: in M-1·cm-1 (unit assumed)
Procedure: Compound 1 (80 mg), 3-(4-carboxybutyl)phenylboronic acid (40 mg), and cesium carbonate (20 mg) are stirred into 1:1 water:ethanol (10 ml) under nitrogen at room temperature. Tetrakis(triphenylphosphine)palladium(0) (10 mg) is added to the reaction mixture. The mixture was refluxed for 4 hours, and the solvent and volatile compounds are evaporated under vacuum. The crude product is purified by flash chromatography on reverse-phase C18-functionalized silica by eluting with a 1:4 acetonitrile:water mixture. The purified product 3 has UV/vis absorption max of λMeOH=680 nm, ε=229,000; λPBS=676 nm, ε=239,000.
Compound 7 (80 mg), 3-(2-carboxyethyl)phenylboronic acid (40 mg), and cesium carbonate (20 mg) were stirred into water (20 mL) under nitrogen at room temperature. Tetrakis(triphenylphosphine)palladium (0) (10 mg) were added to the reaction mixture. The mixture was refluxed for 4 h, and the solvent and volatile compounds then were evaporated under vacuum. The crude product was purified by flash chromatography on reverse-phase silica with an acetonitrile/water mixture as the eluent. The purified compound had λMeOH=680 nm, λPBS=672 nm, ε=160,000.

HRP = target: T1, HRP (Armoracia rusticana, UniProt P00433); assay: 800 HRP substrate test of DIR780F2-P, with and without enzyme, varied pH and Triton X-100; format: biochemical, horseradish; settings: two hours at ambient temperature
T1 sequence (P00433 31-338): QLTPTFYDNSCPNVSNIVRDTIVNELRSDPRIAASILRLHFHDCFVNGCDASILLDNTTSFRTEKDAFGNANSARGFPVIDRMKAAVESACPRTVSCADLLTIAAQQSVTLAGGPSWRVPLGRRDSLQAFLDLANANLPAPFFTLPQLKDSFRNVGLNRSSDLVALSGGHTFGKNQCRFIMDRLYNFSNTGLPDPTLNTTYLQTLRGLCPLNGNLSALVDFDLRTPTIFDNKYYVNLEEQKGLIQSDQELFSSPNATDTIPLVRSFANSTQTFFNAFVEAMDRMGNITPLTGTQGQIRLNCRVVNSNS
Source text: Their efficacies as 800 HRP substrates have been tested in the ELISA format.

[2] = system: ROS generation in RAW264.7 macrophages; assay: Imaging LPS-induced ROS generation in RAW264.7 macrophages by fluorescence microscope; format: cell-based, mouse; settings: RAW264.7 cells, 5 μM hydrocyanines, 30 min
[3] = Cell permeability of reduced dyes; format: in vitro ADME
[4] = Water solubility of reduced dyes; format: physicochemical
β actin in A431 lysate = assay: Western blot detection with chemifluorescent substrates, A431 lysate probed with mouse anti-β actin and HRP goat anti-mouse antibodies; set-up: species or system Human
Source text: Use of H-IR780F2 and H-IRDye® 800CW for blot imaging was compared to a commercially-available 680 HRP ELISA substrate (see FIG. 15). 4-12% Bis-Tris gels were loaded with 2-fold, 7-point serial dilutions of A431 lysate (high conc.=[…]), electrophoresed, transferred to Odyssey Nitrocellulose, blocked with SeaBlock Blocking Buffer (with ProClin preservative). The blots were probed with mouse anti-β actin antibodies, followed by HRP goat anti-mouse antibodies (FIG. 15, A-D) or dye-conjugated goat anti-mouse antibodies (FIG. 15, E-F). Blots probed with HRP goat anti-mouse antibodies were incubated for 5 min with chemifluorescent substrates in buffer containing hydrogen peroxide. H-IRDye® 800CW and H-IR780F2 were tested at 10 μM with 50-200 μM H2O2. HRP 680 ELISA substrate was used according to published protocols (i.e., LI-COR product no. 926-34300).
The basic workflow remains unchanged and therefore, the chemifluorescent substrate based analysis is amenable to other methods of protein analysis, such as ELISAs and protein arrays.

[5] = target: T2, goat anti-mouse HRP-labeled antibody (GAM-HRP) (Armoracia rusticana, UniProt P00433); assay: H-IR 780 / D-IR 780 as HRP substrate with HRP-labeled antibody in 96-well plate; format: biochemical, horseradish; settings: 10 μM substrate, HRP 800 Assay Buffer pH 3.0, 10 minutes ambient temperature, Odyssey 800 nm channel
T2 sequence (P00433 31-338 limits assumed): T1 sequence (P00433 31-338)
Source text: Reduced hydrocyanine dyes (H- or D-versions) are nonfluorescent, but turn fluorescent upon oxidation. This activation property was exploited to utilize the reduced hydrocyanine dyes as horseradish peroxidase (HRP) substrates. In certain embodiments of an enzymatic assay, the hydrocyanines can be oxidized by HRP using hydrogen peroxide as the oxidizing agent, yielding a fluorescent signal. In some preferred embodiments, this fluorescent signal's wavelength can range from 530-900 nm depending on the structure of the dye.
HRP 800 Assay Buffer: The HRP 800 Assay Buffer contains 60 μM Hydrogen Peroxide, 0.2 μg/mL Acetanilide, 0.02% Triton X−100, in 100 mM Citrate Buffer, pH 3.0.
H-IR 780 Substrate solution: 10 μM H-IR 780 in the HRP 800 Assay Buffer.
D-IR 780 Substrate solution: 10 μM D-IR 780 in the HRP 800 Assay Buffer.
The utility of the H-IR 780 and D-IR 780 as a HRP substrate was tested by reaction of the dye with an enzyme-labeled antibody. The substrate, when oxidized by HRP and hydrogen peroxide, yields a fluorescent signal at approximately 800 nm in the NIR. […] Wells B12, C12 and D12 received 10 μL of PBS buffer (pH 7.2) and were used as a control to measure the background fluorescence. […]

- +Enzyme signal (HRP; pH 5, Triton X-100 0.01%): 111403 and 107251 and 95434 and 93017
- Mean Background (HRP; pH 5, Triton X-100 0.01%): 17016
- Mean Signal (HRP; pH 5, Triton X-100 0.01%): 101776
- Signal-Background (HRP; pH 5, Triton X-100 0.01%): 84761
- −Enzyme signal (HRP; pH 5, Triton X-100 0.01%): 14729 and 17889 and 16731 and 18713
- +Enzyme signal (HRP; pH 5, Triton X-100 0.05%): 110308 and 116984 and 91720 and 95384
- Mean Background (HRP; pH 5, Triton X-100 0.05%): 16011
- Mean Signal (HRP; pH 5, Triton X-100 0.05%): 103599
- Signal-Background (HRP; pH 5, Triton X-100 0.05%): 87588
- −Enzyme signal (HRP; pH 5, Triton X-100 0.05%): 15096 and 16995 and 15697 and 16257
- +Enzyme signal (HRP; pH 5, Triton X-100 0.1%): 86168 and 78778 and 79940 and 81063
- Mean Background (HRP; pH 5, Triton X-100 0.1%): 14716
- Mean Signal (HRP; pH 5, Triton X-100 0.1%): 81487
- Signal-Background (HRP; pH 5, Triton X-100 0.1%): 66771
- −Enzyme signal (HRP; pH 5, Triton X-100 0.1%): 14612 and 15268 and 14653 and 14330
- +Enzyme signal (HRP; pH 6, Triton X-100 0.01%): 65943 and 71002 and 70952 and 72922
- Mean Background (HRP; pH 6, Triton X-100 0.01%): 13218
- Mean Signal (HRP; pH 6, Triton X-100 0.01%): 70205
- Signal-Background (HRP; pH 6, Triton X-100 0.01%): 56987
- −Enzyme signal (HRP; pH 6, Triton X-100 0.01%): 12646 and 15381 and 12242 and 12600
- +Enzyme signal (HRP; pH 6, Triton X-100 0.05%): 72420 and 71667 and 65401 and 73540
- Mean Background (HRP; pH 6, Triton X-100 0.05%): 15498
- Mean Signal (HRP; pH 6, Triton X-100 0.05%): 70757
- Signal-Background (HRP; pH 6, Triton X-100 0.05%): 55259
- −Enzyme signal (HRP; pH 6, Triton X-100 0.05%): 16006 and 17026 and 14644 and 14316
- +Enzyme signal (HRP; pH 6, Triton X-100 0.1%): 73669 and 63411 and 72029 and 67718
- Mean Background (HRP; pH 6, Triton X-100 0.1%): 17956
- Mean Signal (HRP; pH 6, Triton X-100 0.1%): 69207
- Signal-Background (HRP; pH 6, Triton X-100 0.1%): 51251
- −Enzyme signal (HRP; pH 6, Triton X-100 0.1%): 21194 and 15983 and 19749 and 14897
Compound: [2H]C1(C=CC2=C(c3cccc(F)c3F)C(=CC=C3N(CCC)c4ccccc4C3(C)C)CCC2)N(CCC)c2ccccc2C1(C)C (stereo not drawn) [DIR780F2-P]

- cell permeability [3]: cell permeable
- water solubility [4]: improved water solubility
Compound: CC1(C)\C(=C/C=C(Br)/C=C/C2N(CCCCCCO)c3ccccc3C2(C)C)N(CCCCCCO)c2ccccc21 (stereo not drawn) [H-IR650DIOL, 6-((E)-2-((2Z,4E)-3-bromo-5-(1-(6-hydroxyhexyl)-3,3-dimethylindolin-2-yl)penta-2,4-dien-1-ylidene)-3,3-dimethylindolin-1-yl)hexan-1-ol]

- cell permeability [3]: cell permeable
- water solubility [4]: improved water solubility
Compound: CC1(C)\C(=C/C=C(Br)/C=C/C2N(CCCCCCO)c3ccc4ccccc4c3C2(C)C)N(CCCCCCO)c2ccc3ccccc3c21 (stereo not drawn) [H-IR680DIOL]

The next lines start with the molecule.

Compound: CC1(C)C(/C=C/C(=C/C=C2/N(CCCS(=O)(=O)[O-])c3ccc4c(S(=O)(=O)[O-])cc(S(=O)(=O)[O-])cc4c3C2(C)C)c2cccc(CCCCC(=O)O)c2)=[N+](CCCS(=O)(=O)[O-])c2ccc3c(S(=O)(=O)[O-])cc(S(=O)(=O)[O-])cc3c21.[Na+].[Na+].[Na+].[Na+].[Na+] [Compound 3, Sodium 2-((1E,3Z,5E)-3-(3-(4-Carboxybutyl)phenyl)-5-(1,1-dimethyl-6,8-disulfonato-3-(3-sulfonatopropyl)-1H-benzo[e]indol-2(3H)-ylidene)penta-1,3-dienyl)-1,1-dimethyl-3-(3-sulfonatopropyl)-1H-benzo[e]indolium-6,8-disulfonate]
- Max. Abs. ([1]; MeOH): 680 nm
- Extinction Coefficient ([1]; MeOH): 229,000
- Max. Abs. ([1]; PBS): 676 nm
- Extinction Coefficient ([1]; PBS): 239,000

Compound: CC1(C)C(/C=C/C(=C/C=C2/N(CCCS(=O)(=O)[O-])c3ccc(S(=O)(=O)[O-])cc3C2(C)C)c2cccc(CCC(=O)O)c2)=Nc2c1cc(Cl)c[n+]2CCCS(=O)(=O)[O-].[Na+].[Na+] [Compound 8, Sodium (E)-2-((2Z,4E)-3-(3-(2-Carboxyethyl)phenyl)-5-(5-chloro-3,3-dimethyl-7-(3-sulfonatopropyl)-3H-pyrrolo[2,3-b]pyridin-7-ium-2-yl)penta-2,4-dienylidene)-3,3-dimethyl-1-(3-sulfonatopropyl)indoline-5-sulfonate]
- Max. Abs. ([1]; MeOH): 680 nm
- Max. Emis. ([1]; MeOH): 694 nm
- Extinction Coefficient ([1]; MeOH): 170,000
- Max. Abs. ([1]; PBS): 672 nm
- Max. Emis. ([1]; PBS): 694 nm
- Extinction Coefficient ([1]; PBS): 160,000

Compound: CCCN1/C(=C/C=C/C2N(CCC)c3ccccc3C2(C)C)C(C)(C)c2ccccc21 (stereo not drawn) [H-Cy3]
- fluorescent intensity in LPS treated cells compared to untreated cells [2]: increased fluorescent intensity in the LPS treated cells compared to the untreated cells

Compound: CCCN1/C(=C/C=C2\CCCC(/C=C/C3N(CCC)c4ccccc4C3(C)C)=C2c2cccc(F)c2F)C(C)(C)c2ccccc21 (stereo not drawn) [H-IR780F2]
- fluorescent intensity in LPS treated cells compared to untreated cells [2]: increased fluorescent intensity in the LPS treated cells compared to the untreated cells
- Western blot signal, background and linearity (β actin in A431 lysate; 10 μM substrate, 50-200 μM H2O2, 5 min incubation): good signal with high linearity for lower signals and moderate linearity for higher signals
- Lower Limit of Detection (LLD) (β actin in A431 lysate; Western blots): 1.5 ng
- sensitivity compared to chemiluminescent detection (luminol-based reagent system) (β actin in A431 lysate; Western blots): 32 fold
- sensitivity compared to fluorescent dye-conjugated secondary antibody detection (β actin in A431 lysate; Western blots): 16 fold

Compound: CCCN1/C(=C/C=C2\CCCC(/C=C/C3N(CCC)c4ccccc4C3(C)C)=C2Cl)C(C)(C)c2ccccc21 (stereo not drawn) [H-IR 780]
- fluorescence signal at approximately 800 nm versus GAM-HRP concentration [5]: intensity of the fluorescence signal increased with increasing concentration of GAM-HRP
